Test results: article PMC2706954, “Dissecting Structural and Functional Diversity of the Lantibiotic Mersacidin” (Chemistry & Biology, 2009)
In brackets after ≈: the same amount, converted by molar mass. Several values for one entry are separate records, joined by “and”; a condition that tells them apart may be missing. Identical values can stand only once. Like-named read-outs stand apart in the source and are kept apart here. Where no end group is shown, it is not given here.

Tests used:
S. epidermidis NCTC11047 = format: cell-based
Method: (§1) Antibacterial activity of fermentation samples or purified samples was determined by Mueller-Hinton Agar diffusion bioassays using M. luteus ATCC 4698 as the indicator strain. Susceptibility testing (minimum inhibitory concentration [MIC]) for all aerobic organisms, with the exception of S. pneumoniae, was performed following the recommendations of CLSI. Susceptibility testing of S. pneumoniae was performed by two-fold serial dilutions in brain-heart-infusion broth supplemented with 50 μg/ml Ca^2+. Vancomycin was used as a reference antibiotic, and plates were incubated aerobically, with shaking, for 18–20 hr at 37°C with the MIC defined as the lowest concentration of drug that prevented visible growth.

E. faecium 7131121 VRE = format: cell-based
Method: as §1

E. faecium ATCC19579 = format: cell-based
Method: as §1

E. faecalis ATCC29212 = format: cell-based
Method: as §1

S. pneumoniae BAA-255 = format: cell-based, Streptococcus pneumoniae
Method: as §1

S. aureus R33 MRSA = format: cell-based, Staphylococcus aureus
Method: as §1

S. aureus SH1000 = format: cell-based, Staphylococcus aureus
Method: as §1

M. luteus ATCC4698 = format: cell-based, Micrococcus luteus
Method: as §1

[1] = tested on: panel of microorganisms (target strains); assay: MIC determination against the panel of microorganisms (target strains); format: cell-based; settings: comparison with mersacidin or with parent single mutants
Method: Partially purified fermentation samples from clones expressing highly produced variants were assayed for antimicrobial activity against M. luteus. Samples were fractionated to eliminate interfering bioactive compounds produced by the host strain and were bioassayed (see Supplemental Data available online). Selected mersacidin variants with antibacterial activity against M. luteus were produced at larger scale for quantitative studies (2 l). The mersacidin variants were purified and assayed against a panel of microorganisms to determine the MIC values.
as §1

[2] = tested on: methicillin-resistant Staphylococcus aureus (MRSA); settings: administered subcutaneously; at concentrations comparable to vancomycin; ref Chatterjee et al., 1992b; cited from earlier work
Text: (§2) Mersacidin has antibacterial activity against Gram-positive pathogens; like vancomycin, it binds to the peptidoglycan precursor lipid II ([Brotz et al., 1995; Brotz et al., 1997]).

MRSA = settings: ref Kruszewska et al., 2004; cited from earlier work
Text: as §2

[3] = CLSI recommendations, incubated aerobically with shaking 18–20 hr at 37°C, MIC = lowest concentration preventing visible growth, purified variants

Compound	MIC S. epidermidis NCTC11047 (S. epidermidis NCTC11047; NCTC11047)	MIC E. faecium 7131121 VRE (E. faecium 7131121 VRE; 7131121 VRE)	MIC E. faecium ATCC19579 (E. faecium ATCC19579; ATCC19579)	MIC E. faecalis ATCC29212 (E. faecalis ATCC29212; ATCC29212)	MIC S. pneumoniae BAA-255 (S. pneumoniae BAA-255; BAA-255)	MIC S. aureus R33 MRSA (S. aureus R33 MRSA; R33)	MIC S. aureus SH1000 (S. aureus SH1000; SH1000)	MIC M. luteus ATCC4698 (M. luteus ATCC4698; ATCC4698)	other results
C=C1NC(=O)C2NC(=O)[C@H](CC(C)C)NC(=O)C(NC(=O)[C@@H]3CSC(C)C(NC(=O)[C@H](Cc4ccccc4)NC(=O)C4NC(=O)[C@@H](N)CSC4C)C(=O)N[C@@H](CC(C)C)C(=O)N4CCC[C@H]4C(=O)NCC(=O)NCC(=O)NCC(=O)N[C@@H](C)C(=O)N[C@@H](C(C)C)C(=O)N3)C(C)SC[C@H](NC(=O)[C@H](CCC(=O)O)NC1=O)C(=O)N[C@@H]([C@@H](C)CC)C(=O)NC=CSC2C (stereo partly shown) [G10A]	64, >64 μg/ml	>64 µg/mL	>64 µg/mL	>64 µg/mL	8 µg/mL (≈ 4.35 µM)	64, >64 μg/ml	>64 µg/mL	8 µg/mL (≈ 4.35 µM)	–
C=C1NC(=O)C2NC(=O)[C@H](CC(C)C)NC(=O)C(NC(=O)[C@@H]3CSC(C)C(NC(=O)[C@H](Cc4ccccc4)NC(=O)C4NC(=O)[C@@H](N)CSC4C)C(=O)N[C@@H](CC(C)C)C(=O)N4CCC[C@H]4C(=O)NCC(=O)NCC(=O)NCC(=O)N[C@@H](CC(N)=O)C(=O)N[C@@H](C(C)C)C(=O)N3)C(C)SC[C@H](NC(=O)[C@H](CCC(=O)O)NC1=O)C(=O)N[C@@H]([C@@H](C)CC)C(=O)NC=CSC2C (stereo partly shown) [G10N]	>64 µg/mL	>64 µg/mL	>64 µg/mL	>64 µg/mL	>64 µg/mL	64, >64 μg/ml	>64 µg/mL	8 µg/mL (≈ 4.25 µM)	–
C=C1NC(=O)C2NC(=O)[C@H](CC(C)C)NC(=O)C(NC(=O)[C@@H]3CSC(C)C(NC(=O)[C@H](Cc4ccccc4)NC(=O)C4NC(=O)[C@@H](N)CSC4C)C(=O)N[C@@H](CC(C)C)C(=O)N4CCC[C@H]4C(=O)NCC(=O)NCC(=O)NCC(=O)N[C@@H](C(C)C)C(=O)N[C@@H](C(C)C)C(=O)N3)C(C)SC[C@H](NC(=O)[C@H](CCC(=O)O)NC1=O)C(=O)N[C@@H]([C@@H](C)CC)C(=O)NC=CSC2C (stereo partly shown) [G10V]	64 µg/mL (≈ 34.3 µM)	>64 µg/mL	>64 µg/mL	>64 µg/mL	16 µg/mL (≈ 8.56 µM)	64, >64 μg/ml	>64 µg/mL	< 4 µg/mL	–
CC[C@H](C)[C@@H]1NC(=O)[C@@H]2CSC(C)C(NC(=O)[C@@H]3CSC(C)C(NC(=O)[C@H](Cc4ccccc4)NC(=O)C4NC(=O)[C@@H](N)CSC4C)C(=O)N[C@@H](CC(C)C)C(=O)N4CCC[C@H]4C(=O)NCC(=O)NCC(=O)NCC(=O)NCC(=O)N[C@@H](C(C)C)C(=O)N3)C(=O)N[C@@H](CC(C)C)C(=O)NC(C(=O)N[C@@H](C)C(=O)N[C@@H](CCC(=O)O)C(=O)N2)C(C)SC=CNC1=O (stereo partly shown) [S16A]	32 µg/mL (≈ 17.5 µM)	>64 µg/mL	32 µg/mL (≈ 17.5 µM)	64 µg/mL (≈ 35 µM)	4 µg/mL (≈ 2.19 µM)	16 µg/mL (≈ 8.75 µM)	64 µg/mL (≈ 35 µM)	2 µg/mL (≈ 1.09 µM)	–
CC=C1NC(=O)C2NC(=O)[C@H](CC(C)C)NC(=O)C(NC(=O)[C@@H]3CSC(C)C(NC(=O)[C@H](Cc4ccccc4)NC(=O)C4NC(=O)[C@@H](N)CSC4C)C(=O)N[C@@H](CC(C)C)C(=O)N4CCC[C@H]4C(=O)NCC(=O)NCC(=O)NCC(=O)NCC(=O)N[C@@H](C(C)C)C(=O)N3)C(C)SC[C@H](NC(=O)[C@H](CCC(=O)O)NC1=O)C(=O)N[C@@H]([C@@H](C)CC)C(=O)NC=CSC2C (stereo partly shown) [S16Db]	16 µg/mL (≈ 8.69 µM)	64 µg/mL (≈ 34.8 µM)	32 µg/mL (≈ 17.4 µM)	32 µg/mL (≈ 17.4 µM)	32 µg/mL (≈ 17.4 µM)	8 µg/mL (≈ 4.35 µM)	32 µg/mL (≈ 17.4 µM)	1 µg/mL (≈ 0.543 µM)	–
C=C1NC(=O)C2NC(=O)[C@H](CC(C)C)NC(=O)C(NC(=O)[C@@H]3CSC(C)C(NC(=O)[C@H](Cc4ccccc4)NC(=O)C4NC(=O)[C@@H](N)CSC4C)C(=O)N[C@@H](CC(C)C)C(=O)N4CCC[C@H]4C(=O)NCC(=O)NCC(=O)NCC(=O)NCC(=O)N[C@@H]([C@@H](C)CC)C(=O)N3)C(C)SC[C@H](NC(=O)[C@H](CCC(=O)O)NC1=O)C(=O)N[C@@H]([C@@H](C)CC)C(=O)NC=CSC2C (stereo partly shown) [V11I]	16 µg/mL (≈ 8.69 µM)	16 µg/mL (≈ 8.69 µM)	16 µg/mL (≈ 8.69 µM)	16 µg/mL (≈ 8.69 µM)	16 µg/mL (≈ 8.69 µM)	16 µg/mL (≈ 8.69 µM)	32 µg/mL (≈ 17.4 µM)	0.5 µg/mL (≈ 0.272 µM)	–
F3W-L14I (CTWTLPGGGGVCTITSECIC; also: mersacidin methyllanthionine thioether bridges, not placed, C-terminal decarboxylated Cys (2-thioethenamine); UniProt P43683 49-68, looked up, variant F3W L14I)	–	–	–	–	–	–	–	–	antibacterial activity, in words, compared with parent [1]: comparable to those of the parent mutants
Mersacidin [reference compound]	–	–	–	–	–	–	–	–	MIC S. epidermidis NCTC11047 (S. epidermidis NCTC11047; [3]): 16 µg/mL and 32 µg/mL; MIC E. faecium 7131121 VRE (E. faecium 7131121 VRE; vancomycin-resistant clinical isolate, CLSI recommendations, 18–20 hr at 37°C, MIC = lowest concentration preventing visible growth): 64 µg/mL; MIC E. faecium ATCC19579 (E. faecium ATCC19579; [3]): 32 µg/mL; MIC E. faecalis ATCC29212 (E. faecalis ATCC29212; [3]): 64 µg/mL; cure of abscesses in rats [2]: cures; cure of systemic MRSA infections in mice [2]: cures; eradication of MRSA in a mouse rhinitis model (MRSA): eradicates MRSA; MIC S. pneumoniae BAA-255 (S. pneumoniae BAA-255; two-fold serial dilutions in brain-heart-infusion broth with 50 μg/ml Ca2+, 18–20 hr at 37°C, MIC = lowest concentration preventing visible growth): 2 µg/mL; MIC S. aureus R33 MRSA (S. aureus R33 MRSA; [3]): 32 µg/mL; MIC S. aureus SH1000 (S. aureus SH1000; [3]): 32 µg/mL; MIC M. luteus ATCC4698 (M. luteus ATCC4698; [3]): 1 µg/mL and 2 µg/mL
V11I-L14I (CTFTLPGGGGICTITSECIC; also: mersacidin methyllanthionine thioether bridges, not placed, C-terminal decarboxylated Cys (2-thioethenamine); UniProt P43683 49-68, looked up, variant V11I L14I)	–	–	–	–	–	–	–	–	antibacterial activity, in words, compared with parent [1]: comparable to those of the parent mutants
